Results as given in patent US9708316B2 (BRISTOL-MYERS SQUIBB COMPANY, priority 2014, dated 2017).

Experiments:
[1] = biological target: T1, HIS-TGFβR1 T204D (Homo sapiens, UniProt P36897, T204D); assay: HTRF probe-displacement assay, HIS-TGFβR1 T204D; assay type: binding; settings: read-out: TGFβR1 (μM) IC50
T1 sequence (P36897 34-503 T204D): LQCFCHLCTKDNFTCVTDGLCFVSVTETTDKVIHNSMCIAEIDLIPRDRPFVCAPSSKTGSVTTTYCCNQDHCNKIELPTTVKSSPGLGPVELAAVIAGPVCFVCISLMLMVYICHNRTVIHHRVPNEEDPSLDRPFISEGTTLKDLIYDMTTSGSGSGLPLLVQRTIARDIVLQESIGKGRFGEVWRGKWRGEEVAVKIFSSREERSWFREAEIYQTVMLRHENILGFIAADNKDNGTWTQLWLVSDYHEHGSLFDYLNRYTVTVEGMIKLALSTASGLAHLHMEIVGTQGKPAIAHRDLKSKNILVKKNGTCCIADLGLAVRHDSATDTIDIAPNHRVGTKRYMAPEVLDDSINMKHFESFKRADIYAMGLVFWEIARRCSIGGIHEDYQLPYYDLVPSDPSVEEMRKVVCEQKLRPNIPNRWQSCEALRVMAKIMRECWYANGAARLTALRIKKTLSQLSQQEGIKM

[2] = biological target: HIS-TGFβR2 WT (Homo sapiens, UniProt P37173); assay: HTRF probe-displacement assay, HIS-TGFβR2 WT; assay type: binding
HIS-TGFβR2 WT, sequence (P37173 23-567): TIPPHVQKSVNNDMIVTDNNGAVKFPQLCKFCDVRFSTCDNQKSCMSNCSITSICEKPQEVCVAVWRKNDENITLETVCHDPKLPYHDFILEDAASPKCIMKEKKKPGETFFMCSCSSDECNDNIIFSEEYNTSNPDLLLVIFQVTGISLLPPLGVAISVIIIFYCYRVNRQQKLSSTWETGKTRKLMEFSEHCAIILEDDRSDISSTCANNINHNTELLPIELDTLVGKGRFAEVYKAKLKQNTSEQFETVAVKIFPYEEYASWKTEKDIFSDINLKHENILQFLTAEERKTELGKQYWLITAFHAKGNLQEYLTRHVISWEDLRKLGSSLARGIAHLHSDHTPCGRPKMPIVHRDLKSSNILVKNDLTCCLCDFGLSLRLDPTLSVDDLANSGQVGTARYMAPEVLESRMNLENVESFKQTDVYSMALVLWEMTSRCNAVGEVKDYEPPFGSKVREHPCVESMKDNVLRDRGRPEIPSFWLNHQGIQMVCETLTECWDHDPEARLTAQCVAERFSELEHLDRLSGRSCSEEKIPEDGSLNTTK

Structure (SMILES) | IC50 [1] [µM] | IC50 [2] [µM]
CC(=O)Nc1cc(-c2[nH]c3c(C(C)C)ccnc3c2-c2cccc(C(F)F)n2)ccn1 [Example 133, N-(4-{3-[6-(Difluoromethyl)pyridin-2-yl]-7-(propan-2-yl)-1H-pyrrolo[3,2-b]pyridin-2-yl}pyridin-2-yl)acetamide] | 0.001 | > 15
CC(=O)Nc1cc(-c2[nH]c3cc(C)cnc3c2-c2nc(C#N)cs2)ccn1 [Example 224, N-(4-(3-(4-Cyanothiazol-2-yl)-6-methyl-1H-pyrrolo[3,2-b]pyridin-2-yl)pyridin-2-yl)acetamide] | 0.0012 | 0.544
CC(=O)Nc1cc(-c2[nH]c3cccnc3c2-c2ccnc(C#N)c2)ccn1 [Example 190, N-(4-(3-(2-Cyanopyridin-4-yl)-1H-pyrrolo[3,2-b]pyridin-2-yl)pyridin-2-yl)acetamide] | 0.0443 | 7.56
CC(=O)Nc1cc(-c2[nH]c3c(CO)ccnc3c2-c2nc(C)cs2)ccn1 [Example 214, N-(4-(7-(hydroxymethyl)-3-(4-methylthiazol-2-yl)-1H-pyrrolo[3,2-b]pyridin-2-yl)pyridin-2-yl)acetamide] | 0.0014 | 0.173
CC(=O)Nc1cc(-c2[nH]c3cc(Cl)cnc3c2-c2nc(C(F)F)cs2)ccn1 [Example 172, N-(4-(6-Chloro-3-(4-(difluoromethyl)thiazol-2-yl)-1H-pyrrolo[3,2-b]pyridin-2-yl)pyridin-2-yl)acetamide] | 0.0004 | 3.98
CC(=O)Nc1cc(-c2[nH]c3c(CF)ccnc3c2-c2cccc(C(F)F)n2)ccn1 [Example 150, N-(4-{3-[6-(Difluoromethyl)pyridin-2-yl]-7-(fluoromethyl)-1H-pyrrolo[3,2-b]pyridin-2-yl}-pyridin-2-yl)acetamide] | 0.001 | 6.08
COc1ccc(-c2c(-c3ccnc(NC(C)=O)c3)[nH]c3c(C(O)C(C)C)ccnc23)cn1 (stereo not shown) [Example 300, N-(4-(7-(1-Hydroxy-2-methylpropyl)-3-(6-methoxypyridin-3-yl)-1H-pyrrolo[3,2-b]pyridin-2-yl)pyridin-2-yl)acetamide] | 0.003 | 0.017
CC(=O)Nc1cc(-c2[nH]c3cccnc3c2-c2ccc(C#N)s2)ccn1 [Example 188, N-(4-(3-(5-Cyanothiophen-2-yl)-1H-pyrrolo[3,2-b]pyridin-2-yl)pyridin-2-yl)acetamide] | 0.0104 | 0.24
CC(=O)Nc1cc(-c2[nH]c3cccnc3c2-c2ncccn2)ccn1 [Example 8, N-{4-[3-(Pyrimidin-2-yl)-1H-pyrrolo[3,2-b]pyridin-2-yl]pyridin-2-yl}acetamide] | 0.009 | 2.03
CC(=O)Nc1cc(-c2[nH]c3c(C(O)C(F)F)ccnc3c2-c2cccc(C(F)F)n2)ccn1 (stereo not shown) [Example 148, N-{4-[7-(2,2-Difluoro-1-hydroxyethyl)-3-[6-(difluoromethyl)pyridin-2-yl]-1H-pyrrolo[3,2-b]pyridin-2-yl]pyridin-2-yl}acetamide] | 0.001 | 0.484
COc1ccc(-c2c(-c3ccnc(NC(C)=O)c3)[nH]c3c(CN)ccnc23)cn1 [Example 81, N-(4-(7-(Aminomethyl)-3-(6-methoxypyridin-3-yl)-1H-pyrrolo[3,2-b]pyridin-2-yl)pyridin-2-yl)acetamide] | 0.014 | 0.26
CC(=O)Nc1cc(-c2[nH]c3c(C#N)ccnc3c2-c2nc(C)cs2)ccn1 [Example 240, N-(4-(7-Cyano-3-(4-methylthiazol-2-yl)-1H-pyrrolo[3,2-b]pyridin-2-yl)pyridin-2-yl)acetamide] | 0.594 | > 15
C=Cc1ccnc2c(-c3cccc(C(F)F)n3)c(-c3ccnc(NC(C)=O)c3)[nH]c12 [Example 127, N-(4-{3-[6-(Difluoromethyl)pyridin-2-yl]-7-ethenyl-1H-pyrrolo[3,2-b]pyridin-2-yl}pyridin-2-yl)acetamide] | 0.001 | 6.65
CC(=O)Nc1cc(-c2[nH]c3cc(F)cnc3c2-c2nc(C)cs2)ccn1 [Example 225, N-(4-(6-Fluoro-3-(4-methylthiazol-2-yl)-1H-pyrrolo[3,2-b]pyridin-2-yl)pyridin-2-yl)acetamide] | 0.0007 | 0.057

Results, then the molecule that gave them:

IC50 [1] [µM] | IC50 [2] [µM] | Structure (SMILES)
0.72 | > 15 | COc1ncc(-c2c(-c3ccnc(NC(C)=O)c3)[nH]c3cccnc23)cn1 [Example 27, N-{4-[3-(2-Methoxypyrimidin-5-yl)-1H-pyrrolo[3,2-b]pyridin-2-yl]pyridin-2-yl}acetamide]
0.005 | 2.45 | COc1ccnc2c(-c3ccc(F)cn3)c(-c3ccnc(NC(C)=O)c3)[nH]c12 [Example 268, N-(4-(3-(5-Fluoropyridin-2-yl)-7-methoxy-1H-pyrrolo[3,2-b]pyridin-2-yl)pyridin-2-yl)acetamide]
0.0006 | 0.725 | COc1cnc2c(-c3nc(C(F)F)cs3)c(-c3ccnc(NC(C)=O)c3)[nH]c2c1 [Example 227, N-(4-(3-(4-(Difluoromethyl)thiazol-2-yl)-6-methoxy-1H-pyrrolo[3,2-b]pyridin-2-yl)pyridin-2-yl)acetamide]
0.0024 | 0.037 | COc1ccc(-c2c(-c3ccnc(NC(C)=O)c3)[nH]c3c(C(C)O)ccnc23)cn1 (stereo not shown) [Example 230, N-(4-(7-(1-Hydroxyethyl)-3-(6-methoxypyridin-3-yl)-1H-pyrrolo[3,2-b]pyridin-2-yl)pyridin-2-yl)acetamide]
0.001 | 1.12 | COc1cnc2c(-c3cccc(C)n3)c(-c3ccnc(NC(C)=O)c3)[nH]c2c1 [Example 283, N-(4-(6-Methoxy-3-(6-methylpyridin-2-yl)-1H-pyrrolo[3,2-b]pyridin-2-yl)pyridin-2-yl)acetamide]
0.004 | > 15 | COc1ccc(-c2c(-c3ccnc(NC(C)=O)c3)[nH]c3cc(-c4c(C)nnn4C)cnc23)nc1 [Example 94, N-{4-[6-(Dimethyl-1H-1,2,3-triazol-5-yl)-3-(5-methoxypyridin-2-yl)-1H-pyrrolo[3,2-b]pyridin-2-yl]pyridin-2-yl}acetamide]
0.007 | > 15 | COc1ccc(-c2c(-c3ccnc(NC(=O)CN4CCOCC4)c3)[nH]c3cc(Cl)cnc23)nc1 [Example 250, N-(4-(6-Chloro-3-(5-methoxypyridin-2-yl)-1H-pyrrolo[3,2-b]pyridin-2-yl)pyridin-2-yl)-2-morpholinoacetamide]
0.001 | 1.85 | COc1cnc2c(-c3cccc(C(F)F)n3)c(-c3ccnc(NC(C)=O)c3)[nH]c2c1 [Example 282, N-(4-(3-(6-(Difluoromethyl)pyridin-2-yl)-6-methoxy-1H-pyrrolo[3,2-b]pyridin-2-yl)pyridin-2-yl)acetamide]
0.003 | 0.68 | CC(=O)Nc1cc(-c2[nH]c3cccnc3c2-c2ccc(F)c(C)n2)ccn1 [Example 23, N-{4-[3-(5-Fluoro-6-methylpyridin-2-yl)-1H-pyrrolo[3,2-b]pyridin-2-yl]pyridin-2-yl}acetamide]
0.02 | > 15 | CCOc1cccc(-c2c(-c3ccnc(NC(C)=O)c3)[nH]c3cc(Cl)cnc23)n1 [Example 256, N-(4-(6-Chloro-3-(6-ethoxypyridin-2-yl)-1H-pyrrolo[3,2-b]pyridin-2-yl)pyridin-2-yl)acetamide]
0.2 | > 15 | CC(=O)Nc1cc(-c2[nH]c3c(C4CCN(C)CC4)ccnc3c2-c2cccc(C)n2)ccn1 [Example 138, N-{4-[7-(1-Methylpiperidin-4-yl)-3-(6-methylpyridin-2-yl)-1H-pyrrolo[3,2-b]pyridin-2-yl]pyridin-2-yl}acetamide]
0.002 | 0.016 | COc1cnc2c(-c3ccc(OC)nc3)c(-c3ccnc(NC(C)=O)c3)[nH]c2c1 [Example 285, N-(4-(6-Methoxy-3-(6-methoxypyridin-3-yl)-1H-pyrrolo[3,2-b]pyridin-2-yl)pyridin-2-yl)acetamide]
0.001 | > 15 | COc1ccc(-c2c(-c3ccnc(NC(=O)CN4CCN(CCO)CC4)c3)[nH]c3cc(OC)cnc23)nc1 [Example 120, 2-[4-(2-Hydroxyethyl)piperazin-1-yl]-N-{4-[6-methoxy-3-(5-methoxypyridin-2-yl)-1H-pyrrolo[3,2-b]pyridin-2-yl]pyridin-2-yl}acetamide]
0.0006 | 0.044 | COc1cnc2c(-c3nc(C)cs3)c(-c3ccnc(NC(C)=O)c3)[nH]c2c1 [Example 208, N-(4-(6-Methoxy-3-(4-methylthiazol-2-yl)-1H-pyrrolo[3,2-b]pyridin-2-yl)pyridin-2-yl)acetamide]
0.002 | 0.61 | COc1cnc2c(-c3ccc(F)c(C)n3)c(-c3ccnc(NC(C)=O)c3)[nH]c2c1 [Example 51, N-{4-[3-(5-Fluoro-6-methylpyridin-2-yl)-6-methoxy-1H-pyrrolo[3,2-b]pyridin-2-yl]pyridin-2-yl}acetamide]
